As usually defined, the EC50 is the midpoint of the concentration-response curve.

Drawing on patent US8119661B2, “Piperidine derivatives and their use as muscarinic receptor modulators” (AstraZeneca AB, priority 2007, dated 2012), this text covers EC50 for 14 compounds.

Experiment [1] has as its target T1, hM1 (human Muscarinic receptor subtype 1) (Homo sapiens, UniProt P11229).
T1 construct: expressed in transfected cells; host or cells: CHO cells (Chinese hamster ovary cells, ATCC)
T1 sequence (P11229 1-460): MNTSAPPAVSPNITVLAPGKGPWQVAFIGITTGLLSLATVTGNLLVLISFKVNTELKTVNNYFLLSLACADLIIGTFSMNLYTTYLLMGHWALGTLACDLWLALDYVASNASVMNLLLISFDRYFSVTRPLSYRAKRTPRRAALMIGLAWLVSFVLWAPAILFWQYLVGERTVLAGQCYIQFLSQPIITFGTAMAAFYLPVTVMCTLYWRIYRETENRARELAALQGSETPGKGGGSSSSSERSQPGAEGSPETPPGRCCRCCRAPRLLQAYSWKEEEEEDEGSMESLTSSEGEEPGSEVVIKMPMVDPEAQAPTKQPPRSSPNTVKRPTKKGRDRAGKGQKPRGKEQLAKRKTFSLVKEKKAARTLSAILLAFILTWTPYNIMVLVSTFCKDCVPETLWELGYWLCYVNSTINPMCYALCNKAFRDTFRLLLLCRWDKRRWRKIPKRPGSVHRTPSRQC
The experiment can be described thus: Human M1 calcium mobilization FLIPR assay. It counts as cell-based. The following applies: CHO cells expressing hM1, intracellular Ca2+ release. The method, then:
(§1) The compound activity in the present invention (EC50 or IC50) is measured using a 384 plate-based imaging assay that monitors drug induced intracellular Ca^2+ release in whole cells. Activation of hM1 (human Muscarinic receptor subtype 1, gene bank access NM_000738), rM1 (rat Muscarinic receptor subtype 1, gene bank access NM_080773), hM3 (human Muscarinic receptor subtype 3, gene bank access NM_000740NM_000740) and hM5 (human Muscarinic receptor subtype 5, gene bank access NM_0121258), receptors expressed in CHO cells (Chinese hamster ovary cells, ATCC) is quantified in a Molecular Devices FLIPR II™ instrument as an increase in fluorescent signal. Inhibition of hM3 and hM5 by compounds is determined by the decrease in fluorescent signal in response to 2 nM acetylcholine activation.
(§2) Prior to experiment, the cell culture medium is removed from the plates by inversion. […] Plates are incubated at 37° C. for 60 minutes prior to start the experiment. The incubation is terminated by washing the cells four times in assay buffer, leaving a residual 25 μl buffer per well. Cell plates are then transferred to the FLIPR, ready for compound additions.
(§3) The day of experiment, acetylcholine and compounds are diluted in assay buffer in three-fold concentration range (10 points serial dilution) for addition by FLIPR instrument. For all calcium assays, a baseline reading is taken for 10 seconds followed by the addition of 12.5 μl of compounds, resulting in a total well volume of 37.5 μl. Data is collected every second for 60 pictures and then every 6 seconds for 20 pictures prior to the addition of agonist. For hM3 and hM5, before agonist addition, a second baseline reading is taken for 10 seconds followed by the addition of 12.5 μl of agonist or buffer, producing a final volume of 50 μl. After agonist stimulation, the FLIPR continues to collect data every second for 60 pictures and then every 6 seconds for 20 pictures. The fluorescence emission is read using filter 1 (emission 510-570 nm) by the FLIPR on board CCD camera.
(§4) Calcium mobilization output data are calculated as the maximal relative fluorescence unit (RFU) minus the minimal value for both compound and agonist reading frame (except for hM1 and rM1 using only the maximal RFU). Data are analyzed using sigmoidal fits of a non-linear curve-fitting program (XLfit version 4.2.2 Excel add-in version 4.2.2 build 18 math 1Q version 2.1.2 build 18). All pEC50 and pIC50 values are reported as arithmetic means±standard error of mean of ‘n’ independent experiments.
In general terms: Calcium flux is commonly read through the fluorescence of an indicator in the cells.

For another experiment, the target named is T2, cloned human M4 receptor (Homo sapiens, UniProt P08173).
T2 construct: purchased Perkin-Elmer RBHM4M; host or cells: CHO cell membranes
T2 sequence (P08173 1-479): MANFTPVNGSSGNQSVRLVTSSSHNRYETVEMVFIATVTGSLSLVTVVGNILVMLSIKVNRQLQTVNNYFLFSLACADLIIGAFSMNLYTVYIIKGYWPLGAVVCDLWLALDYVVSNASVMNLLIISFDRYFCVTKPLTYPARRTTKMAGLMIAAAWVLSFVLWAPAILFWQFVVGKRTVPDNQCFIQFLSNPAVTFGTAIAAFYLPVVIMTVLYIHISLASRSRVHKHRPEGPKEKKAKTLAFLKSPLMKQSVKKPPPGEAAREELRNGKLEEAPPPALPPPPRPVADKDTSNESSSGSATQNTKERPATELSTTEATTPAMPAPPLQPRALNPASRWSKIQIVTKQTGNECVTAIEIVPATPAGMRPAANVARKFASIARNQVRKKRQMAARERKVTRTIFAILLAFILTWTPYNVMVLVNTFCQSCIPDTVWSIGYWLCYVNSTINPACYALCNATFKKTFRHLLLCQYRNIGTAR
The experiment can be described thus: hM4 receptor GTPγS binding. It counts as biochemical. To be noted: CHO membranes expressing hM4, [35S]GTPγS binding. As for the experimental part:
Membranes produced from Chinese hamster ovary cells (CHO) expressing the cloned human M4 receptor (human Muscarinic receptor subtype 4, gene bank access NM_000741), are obtained from Perkin-Elmer (RBHM4M). The membranes are thawed at 37° C., passed 3 times through a 23-gauge blunt-end needle, diluted in the GTPγS binding buffer (50 mM Hepes, 20 mM NaOH, 100 mM NaCl, 1 mM EDTA, 5 mM MgCl2, pH 7.4, 100 μM DTT). The EC50, IC50 and Emax of the compounds of the invention are evaluated from 10-point dose-response curves (three fold concentration range) done in 60 μl in 384-well non-specific binding surface plate (Corning). Ten microliters from the dose-response curves plate (5× concentration) are transferred to another 384 well plate containing 25 μl of the following: 10 μg of hM4 membranes, 500 μg of Flashblue beads (Perkin-Elmer) and GDP 40 μM. An additional 15 μl containing 3.3× (60,000 dpm) of GTPγ^35S (0.4 nM final) are added to the wells resulting in a total well volume of 50 μl. Basal and maximal stimulated [^35S]GTPγS binding are determined in absence and presence of 30 μM final of acetylcholine agonist. The membranes/beads mix are pre-incubated for 15 minutes at room temperature with 40 μM GDP prior to distribution in plates (20 μM final). The reversal of acetylcholine-induced stimulation (10 μM final) of [^35S]GTPγS binding is used to assay the antagonist properties (IC50) of the compounds. The plates are incubated for 60 minutes at room temperature then centrifuged at 400 rpm for 5 minutes. The radioactivity (cpm) is counted in a Trilux (Perkin-Elmer).
Values of EC50, IC50 and Emax are obtained using sigmoidal fits of a non-linear curve-fitting program (XLfit version 4.2.2 Excel add-in version 4.2.2 build 18 math 1Q version 2.1.2 build 18) of percent stimulated [^35S]GTPγS binding vs. log(molar ligand). All pEC50 and pIC50 values are reported as arithmetic means±standard error of mean of ‘n’ independent experiments.

For experiment [2], the target named is T3, hM3 (human Muscarinic receptor subtype 3) (Homo sapiens, UniProt P20309).
T3 construct: expressed in transfected cells; host or cells: CHO cells (Chinese hamster ovary cells, ATCC)
Briefly: Human M3 calcium mobilization FLIPR assay. It counts as cell-based. To be noted: CHO cells expressing hM3, intracellular Ca2+ release. The method, then:
as §1, §2, §3, §4

T3 sequence (P20309 whole entry): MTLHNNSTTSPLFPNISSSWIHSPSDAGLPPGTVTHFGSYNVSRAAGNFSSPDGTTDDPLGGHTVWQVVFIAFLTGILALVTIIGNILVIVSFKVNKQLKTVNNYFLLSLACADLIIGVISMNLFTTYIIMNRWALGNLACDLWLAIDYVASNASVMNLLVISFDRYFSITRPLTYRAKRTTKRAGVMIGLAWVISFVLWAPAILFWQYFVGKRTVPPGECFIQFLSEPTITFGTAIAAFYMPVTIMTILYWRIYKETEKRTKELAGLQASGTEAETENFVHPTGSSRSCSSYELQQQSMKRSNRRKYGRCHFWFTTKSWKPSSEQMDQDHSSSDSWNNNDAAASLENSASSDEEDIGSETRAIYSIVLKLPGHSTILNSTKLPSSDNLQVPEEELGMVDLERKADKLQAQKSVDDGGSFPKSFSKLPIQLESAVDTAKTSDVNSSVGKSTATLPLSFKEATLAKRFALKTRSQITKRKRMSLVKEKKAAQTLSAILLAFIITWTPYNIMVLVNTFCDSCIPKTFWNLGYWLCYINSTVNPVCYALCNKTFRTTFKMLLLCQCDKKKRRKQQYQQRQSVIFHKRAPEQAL

On to `CCOC(=O)N1CCC(C)(N2CCC(N3C(=O)N[C@H]4CCCC[C@@H]43)CC2)C1` (mixture of isomers) [Example 07, Ethyl 3-[4-[(3aS,7aS)-2-oxo-3a,4,5,6,7,7a-hexahydro-3H-benzoimidazol-1-yl]-1-piperidyl]-3-methyl-pyrrolidine-1-carboxylate], for which the EC50 in experiment [1] is 14 nM; on cloned human M4 receptor, > 21000 nM; in experiment [2] it was > 40000 nM.
For `CC1(N2CCC(N3C(=O)N[C@H]4CCCC[C@@H]43)CC2)CCN(C(=O)OCCF)C1` (mixture of isomers) [Example 08, 2-fluoroethyl 3-[4-[(3aS,7aS)-2-oxo-3a,4,5,6,7,7a-hexahydro-3H-benzoimidazol-1-yl]-1-piperidyl]-3-methyl-pyrrolidine-1-carboxylate], the results for the EC50 (in experiment [1]; at cloned human M4 receptor) were 69 nM and > 30000 nM, respectively.
As to `C#CCOC(=O)N1CCC(C)(N2CCC(N3C(=O)N[C@H]4CCCC[C@@H]43)CC2)C1` (mixture of isomers) [Example 09, Prop-2-ynyl 3-[4-[(3aS,7aS)-2-oxo-3a,4,5,6,7,7a-hexahydro-3H-benzoimidazol-1-yl]-1-piperidyl]-3-methyl-pyrrolidine-1-carboxylate], the 50% effective concentration (EC50) is < 3.6 nM in experiment [1], > 13000 nM at cloned human M4 receptor and > 40000 nM in experiment [2].
Regarding `COC(=O)N1CCC(C)(N2CCC(N3C(=O)N[C@H]4CCCC[C@@H]43)CC2)C1` (mixture of isomers) [Example 10, Methyl 3-[4-[(3aS,7aS)-2-oxo-3a,4,5,6,7,7a-hexahydro-3H-benzoimidazol-1-yl]-1-piperidyl]-3-methyl-pyrrolidine-1-carboxylate], the EC50 was 69 nM in experiment [1] and > 30000 nM at cloned human M4 receptor.
Regarding `CCOC(=O)N1CCC(C)(N2CCC(N3C(=O)N[C@@H]4CCCC[C@H]43)CC2)C1` (mixture of isomers) [Example 11, Ethyl 3-[4-[(3aR,7aR)-2-oxo-3a,4,5,6,7,7a-hexahydro-3H-benzoimidazol-1-yl]-1-piperidyl]-3-methyl-pyrrolidine-1-carboxylate], the 50% effective concentration (EC50) in experiment [1] was 55 nM; at cloned human M4 receptor it was > 30000 nM.
For the compound `CCOC(=O)N1CCC(C)(N2CCC(N3C(=O)N[C@@H]4CCCC[C@@H]43)CC2)CC1` (relative stereo) [Example 12, Ethyl 4-[4-[(cis)-2-oxo-3a,4,5,6,7,7a-hexahydro-3H-benzoimidazol-1-yl]-1-piperidyl]-4-methyl-piperidine-1-carboxylate], the figures for the concentration giving a half-maximal response (EC50) (in experiment [1]; on cloned human M4 receptor; in experiment [2]) were 11 nM, > 4000 nM and > 40000 nM, respectively.
The matching figures for `CC(C)OC(=O)N1CCC(C)(N2CCC(N3C(=O)N[C@@H]4CCCC[C@@H]43)CC2)CC1` (relative stereo) [Example 13, Propan-2-yl 4-[4-[(cis)-2-oxo-3a,4,5,6,7,7a-hexahydro-3H-benzoimidazol-1-yl]-1-piperidyl]-4-methyl-piperidine-1-carboxylate]: 54 nM, > 30000 nM and > 40000 nM.
Regarding `CC#CCOC(=O)N1CCC(C)(N2CCC(N3C(=O)N[C@H]4CCCC[C@@H]43)CC2)C1` (single isomer, unassigned) [Example 19], the values for the 50% effective concentration (EC50) (in experiment [1]; on cloned human M4 receptor) were 4.9 nM and 919 nM, respectively.
As for `CCOC(=O)N1CCC(C)(N2CCC(N3C(=O)N[C@H]4CCCC[C@@H]43)CC2)C1` (single isomer, unassigned) [Example 21], the EC50 in experiment [1] is 18.4 nM; at cloned human M4 receptor it was > 90000 nM; in experiment [2] it was > 22100 nM.
As to `CCOC(=O)N1CCC(C)(N2CCC(N3C(=O)N[C@H]4CCCC[C@@H]43)CC2)C1` (single isomer, unassigned) [Example 22], the EC50 in experiment [1] was 3 nM; on cloned human M4 receptor, 3470 nM; in experiment [2] it was > 25600 nM.
The matching figures for `CCOC(=O)N1CCC(C)(N2CCC(N3C(=O)C[C@@H]4CCCC[C@H]43)CC2)C1` (stereo in doubt) [Example 23, Ethyl 3-[4-[(3aS,7aR)-2-oxo-3a,4,5,6,7,7a-hexahydro-3H-indol-1-yl]-1-piperidyl]-3-methyl-pyrrolidine-1-carboxylate]: 22 nM, 17000 nM and > 120000 nM.
In the same order, the values of `CCOC(=O)N1CCC(C)(N2CCC(N3C(=O)N[C@H]4CCCC[C@@H]43)CC2)CC1` [Example 01, Ethyl 4-[4-[(3aS,7aS)-2-oxo-3a,4,5,6,7,7a-hexahydro-3H-benzoimidazol-1-yl]-1-piperidyl]-4-methyl-piperidine-1-carboxylate] are 1.9 nM, > 1200 nM and 1400 nM.
In the same order, the values of `CC(C)OC(=O)N1CCC(C)(N2CCC(N3C(=O)N[C@H]4CCCC[C@@H]43)CC2)CC1` [Example 02, Propan-2-yl 4-[4-[(3aS,7aS)-2-oxo-3a,4,5,6,7,7a-hexahydro-3H-benzoimidazol-1-yl]-1-piperidyl]-4-methyl-piperidine-1-carboxylate] are 4.4 nM, > 30000 nM and > 40000 nM.
`C#CCOC(=O)N1CCC(C)(N2CCC(N3C(=O)N[C@H]4CCCC[C@@H]43)CC2)CC1` [Example 17, prop-2-ynyl 4-[4-[(3aS,7aS)-2-oxo-3a,4,5,6,7,7a-hexahydro-3H-benzimidazol-1-yl]-1-piperidyl]-4-methyl-piperidine-1-carboxylate]: the figures for the 50% effective concentration (EC50) (in experiment [1]; at cloned human M4 receptor) were 1.5 nM and > 30000 nM, respectively.
